Experimental findings from patent publication US12150920B2, “Topical pharmaceutical composition in the form of aqueous gel comprising at least amitriptyline” (AlgoTherapeutix, priority 2020, dated 2024) are described below.

The data set can be described thus: Ex vivo percutaneous absorption of amitriptyline on human skin samples in a Frantz cell. In kind it is in vitro ADME. Conditions: topical application of compositions A and B. The procedure:
Comparative ex vivo study of the percutaneous absorption of amitriptyline in a formulation A in the form of an aqueous gel (invention) and a formulation B in the form of cream (comparative). Each of compositions A and B was applied to distinct samples of human skin. For each composition, the experiment was repeated 3 times with 3 skin samples from 3 different donors, giving 9 samples. The skin samples are placed in a Frantz cell and heated to a surface temperature of 32° C.±1° C. Composition A or B is spread homogenously with a spatula onto each skin sample at a rate of 10 mg per cell, corresponding to 5 mg/cm^2 skin. The skin samples are rinsed 16 hours after application. Each skin sample was placed using tweezers onto absorbent paper (dermis side down). The stratum corneum was removed using adhesive strips. After the removal of the stratum corneum the sample was perforated. The epidermis is then separated from the dermis. Each of them is placed in separate vials. Different samples were then extracted.

Take `CN(C)CCC=C1c2ccccc2CCc2ccccc21` [amitriptyline]: the “Systemic passage of amitriptyline” value is “less than 0.10 % of the administered dose”.
